# Earlier results as cited in patent US20240082224A1, “METHODS OF TREATING HEMATOLOGICAL MALIGNANCY USING NANOPARTICLE MTOR INHIBITOR COMBINATION THERAPY” (Abraxis BioScience, LLC, priority 2015, published 2024).
# Key:
# ABCG2 = target: T1, ABCG2 (Homo sapiens, UniProt Q9UNQ0)
# T1 sequence (Q9UNQ0 1-655): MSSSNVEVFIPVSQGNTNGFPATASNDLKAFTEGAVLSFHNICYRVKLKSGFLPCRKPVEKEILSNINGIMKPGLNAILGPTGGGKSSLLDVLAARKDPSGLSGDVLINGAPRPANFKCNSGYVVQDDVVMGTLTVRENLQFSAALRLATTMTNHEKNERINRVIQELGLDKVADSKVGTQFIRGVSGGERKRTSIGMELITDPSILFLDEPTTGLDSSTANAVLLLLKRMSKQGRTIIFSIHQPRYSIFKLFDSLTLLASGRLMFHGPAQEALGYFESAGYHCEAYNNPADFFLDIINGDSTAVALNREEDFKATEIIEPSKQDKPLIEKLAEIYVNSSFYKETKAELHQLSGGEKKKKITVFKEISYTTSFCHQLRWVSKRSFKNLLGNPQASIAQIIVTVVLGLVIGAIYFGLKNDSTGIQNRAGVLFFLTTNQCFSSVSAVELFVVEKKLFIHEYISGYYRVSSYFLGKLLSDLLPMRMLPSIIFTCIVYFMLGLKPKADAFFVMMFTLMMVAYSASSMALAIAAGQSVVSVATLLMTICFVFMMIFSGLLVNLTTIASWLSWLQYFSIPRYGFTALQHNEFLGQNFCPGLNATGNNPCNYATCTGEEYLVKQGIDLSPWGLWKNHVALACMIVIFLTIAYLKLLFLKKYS
# [1] = in vivo
# ABCB1 = ABCB1 (Homo sapiens, UniProt P08183)
# ABCB1, sequence (P08183 whole entry, species assumed): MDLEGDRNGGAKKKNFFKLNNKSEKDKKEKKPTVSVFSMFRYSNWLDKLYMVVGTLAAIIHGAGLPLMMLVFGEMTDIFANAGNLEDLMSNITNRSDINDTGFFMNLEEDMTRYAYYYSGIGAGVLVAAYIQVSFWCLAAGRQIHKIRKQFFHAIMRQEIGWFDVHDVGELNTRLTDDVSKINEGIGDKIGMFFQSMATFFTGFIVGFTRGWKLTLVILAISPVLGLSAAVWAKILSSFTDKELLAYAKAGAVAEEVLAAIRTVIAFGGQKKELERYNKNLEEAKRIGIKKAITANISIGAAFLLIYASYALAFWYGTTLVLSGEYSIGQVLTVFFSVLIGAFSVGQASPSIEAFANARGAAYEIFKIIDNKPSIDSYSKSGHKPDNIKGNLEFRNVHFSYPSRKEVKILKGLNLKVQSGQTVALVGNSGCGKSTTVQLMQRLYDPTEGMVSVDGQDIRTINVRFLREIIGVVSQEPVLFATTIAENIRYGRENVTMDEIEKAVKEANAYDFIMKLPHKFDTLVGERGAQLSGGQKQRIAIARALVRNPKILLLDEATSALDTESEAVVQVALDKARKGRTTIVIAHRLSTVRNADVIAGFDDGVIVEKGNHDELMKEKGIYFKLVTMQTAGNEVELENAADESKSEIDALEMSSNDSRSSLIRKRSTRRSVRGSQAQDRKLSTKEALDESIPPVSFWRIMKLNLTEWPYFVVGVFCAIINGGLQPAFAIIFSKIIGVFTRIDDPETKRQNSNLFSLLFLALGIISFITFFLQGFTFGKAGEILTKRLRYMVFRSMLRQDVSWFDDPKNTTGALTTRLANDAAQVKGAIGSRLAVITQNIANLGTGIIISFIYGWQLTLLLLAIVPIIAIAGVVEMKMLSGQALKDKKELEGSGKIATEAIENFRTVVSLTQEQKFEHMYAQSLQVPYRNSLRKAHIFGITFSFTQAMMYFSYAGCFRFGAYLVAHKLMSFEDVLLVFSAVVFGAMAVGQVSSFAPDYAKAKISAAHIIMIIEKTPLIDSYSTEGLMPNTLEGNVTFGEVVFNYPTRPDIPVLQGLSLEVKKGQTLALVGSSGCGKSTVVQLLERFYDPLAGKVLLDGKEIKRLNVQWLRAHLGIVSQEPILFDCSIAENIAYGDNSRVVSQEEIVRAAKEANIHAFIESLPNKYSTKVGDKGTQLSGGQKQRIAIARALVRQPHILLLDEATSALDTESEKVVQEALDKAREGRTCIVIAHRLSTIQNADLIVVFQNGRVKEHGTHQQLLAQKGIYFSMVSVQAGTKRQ
Compound,affinity for ABCG2 (ABCG2),brain penetration [1],affinity for ABCB1 (ABCB1),CML patients who respond (CML patients; imatinib),patients progressing to advanced disease (CML patients; within 5 years)
COc1ccc(COc2cc3oc(=O)c4cc(C(C)O)ccc4c3cc2OC)cc1 (centres unmarked) [Palomid 529],lacks affinity,good brain penetration,lacks affinity,–,–
Cc1ccc(NC(=O)c2ccc(CN3CCN(C)CC3)cc2)cc1Nc1nccc(-c2cccnc2)n1 [imatinib],–,–,–,80%,under 3%
